Assay: mn = molality of the nth substance listed, in mol/kg
Settings: 101 kPa, Liquid; for mass density: Vibrating tube method; for electrical conductivity: Wheatstone bridge equipment

C[N+](C)(C)CCCl.[Cl-] [2-chloro-N,N,N-trimethylethanaminium chloride] + O
Settings | electrical conductivity [S/m] | mass density [kg/m3] | viscosity [mPa·s]
278.15 K, m1 = 0.0236 | – | – | 1.526
278.15 K, m1 = 0.0464 | – | – | 1.536
278.15 K, m1 = 0.0506 | – | 1001.45 | –
278.15 K, m1 = 0.0994 | – | – | 1.555
278.15 K, m1 = 0.1009 | – | 1002.89 | –
278.15 K, m1 = 0.2364 | – | 1006.79 | –
278.15 K, m1 = 0.2464 | – | – | 1.61
278.15 K, m1 = 0.3552 | – | – | 1.656
278.15 K, m1 = 0.499 | – | – | 1.712
278.15 K, m1 = 0.501 | – | 1013.92 | –
278.15 K, m1 = 0.6479 | – | – | 1.778
278.15 K, m1 = 0.6523 | – | 1017.88 | –
278.15 K, m1 = 0.7493 | – | – | 1.815
278.15 K, m1 = 0.7529 | – | 1020.46 | –
278.15 K, m1 = 0.9041 | – | – | 1.914
278.15 K, m1 = 0.9927 | – | – | 1.933
278.15 K, m1 = 1.176 | – | – | 2.01
278.15 K, m1 = 1.2 | – | 1031.18 | –
278.15 K, m1 = 1.497 | – | 1038.13 | –
278.15 K, m1 = 1.542 | – | – | 2.298
278.15 K, m1 = 1.986 | – | 1048.24 | –
278.15 K, m1 = 2.148 | – | – | 2.612
288.15 K, m1 = 0.0236 | – | – | 1.148
288.15 K, m1 = 0.0464 | – | – | 1.156
288.15 K, m1 = 0.0506 | – | 1000.52 | –
288.15 K, m1 = 0.0994 | – | – | 1.172
288.15 K, m1 = 0.1009 | – | 1001.9 | –
288.15 K, m1 = 0.2364 | – | 1005.65 | –
288.15 K, m1 = 0.2464 | – | – | 1.211
288.15 K, m1 = 0.3552 | – | – | 1.241
288.15 K, m1 = 0.499 | – | – | 1.286
288.15 K, m1 = 0.501 | – | 1012.48 | –
288.15 K, m1 = 0.6479 | – | – | 1.335
288.15 K, m1 = 0.6523 | – | 1016.28 | –
288.15 K, m1 = 0.7493 | – | – | 1.362
288.15 K, m1 = 0.7529 | – | 1018.75 | –
288.15 K, m1 = 0.9041 | – | – | 1.433
288.15 K, m1 = 0.9927 | – | – | 1.447
288.15 K, m1 = 1.176 | – | – | 1.502
288.15 K, m1 = 1.2 | – | 1029.02 | –
288.15 K, m1 = 1.497 | – | 1035.68 | –
288.15 K, m1 = 1.542 | – | – | 1.708
288.15 K, m1 = 1.986 | – | 1045.39 | –
288.15 K, m1 = 2.148 | – | – | 1.932
298.15 K, m1 = 0.0236 | – | – | 0.907
298.15 K, m1 = 0.0277 | 0.265 | – | –
298.15 K, m1 = 0.0464 | – | – | 0.913
298.15 K, m1 = 0.0506 | – | 998.426 | –
298.15 K, m1 = 0.0514 | 0.49 | – | –
298.15 K, m1 = 0.0994 | – | – | 0.924
298.15 K, m1 = 0.1003 | 0.898 | – | –
298.15 K, m1 = 0.1009 | – | 999.762 | –
298.15 K, m1 = 0.2364 | – | 1003.4 | –
298.15 K, m1 = 0.2464 | – | – | 0.955
298.15 K, m1 = 0.2497 | 1.97 | – | –
298.15 K, m1 = 0.3502 | 2.58 | – | –
298.15 K, m1 = 0.3552 | – | – | 0.977
298.15 K, m1 = 0.499 | – | – | 1.012
298.15 K, m1 = 0.5001 | 3.36 | – | –
298.15 K, m1 = 0.501 | – | 1010.02 | –
298.15 K, m1 = 0.6479 | – | – | 1.047
298.15 K, m1 = 0.6509 | 4.1 | – | –
298.15 K, m1 = 0.6523 | – | 1013.7 | –
298.15 K, m1 = 0.7493 | – | – | 1.069
298.15 K, m1 = 0.7498 | 4.51 | – | –
298.15 K, m1 = 0.7529 | – | 1016.09 | –
298.15 K, m1 = 0.8997 | 5.07 | – | –
298.15 K, m1 = 0.9041 | – | – | 1.124
298.15 K, m1 = 0.9927 | – | – | 1.133
298.15 K, m1 = 0.9998 | 5.42 | – | –
298.15 K, m1 = 1.176 | – | – | 1.173
298.15 K, m1 = 1.2 | – | 1026.04 | –
298.15 K, m1 = 1.212 | 6.08 | – | –
298.15 K, m1 = 1.497 | – | 1032.48 | –
298.15 K, m1 = 1.507 | 6.81 | – | –
298.15 K, m1 = 1.542 | – | – | 1.292
298.15 K, m1 = 1.986 | – | 1041.87 | –
298.15 K, m1 = 1.998 | 7.67 | – | –
298.15 K, m1 = 2.148 | – | – | 1.493
308.15 K, m1 = 0.0236 | – | – | 0.711
308.15 K, m1 = 0.0464 | – | – | 0.714
308.15 K, m1 = 0.0506 | – | 995.387 | –
308.15 K, m1 = 0.0994 | – | – | 0.722
308.15 K, m1 = 0.1009 | – | 996.694 | –
308.15 K, m1 = 0.2364 | – | 1000.25 | –
308.15 K, m1 = 0.2464 | – | – | 0.757
308.15 K, m1 = 0.3552 | – | – | 0.77
308.15 K, m1 = 0.499 | – | – | 0.793
308.15 K, m1 = 0.501 | – | 1006.72 | –
308.15 K, m1 = 0.6479 | – | – | 0.831
308.15 K, m1 = 0.6523 | – | 1010.32 | –
308.15 K, m1 = 0.7493 | – | – | 0.833
308.15 K, m1 = 0.7529 | – | 1012.65 | –
308.15 K, m1 = 0.9041 | – | – | 0.879
308.15 K, m1 = 0.9927 | – | – | 0.89
308.15 K, m1 = 1.176 | – | – | 0.915
308.15 K, m1 = 1.2 | – | 1022.36 | –
308.15 K, m1 = 1.497 | – | 1028.63 | –
308.15 K, m1 = 1.542 | – | – | 1.005
308.15 K, m1 = 1.986 | – | 1037.78 | –
308.15 K, m1 = 2.148 | – | – | 1.158
318.15 K, m1 = 0.0236 | – | – | 0.596
318.15 K, m1 = 0.0464 | – | – | 0.595
318.15 K, m1 = 0.0506 | – | 991.452 | –
318.15 K, m1 = 0.0994 | – | – | 0.602
318.15 K, m1 = 0.1009 | – | 992.837 | –
318.15 K, m1 = 0.2364 | – | 996.273 | –
318.15 K, m1 = 0.2464 | – | – | 0.645
318.15 K, m1 = 0.3552 | – | – | 0.66
318.15 K, m1 = 0.499 | – | – | 0.661
318.15 K, m1 = 0.501 | – | 1002.68 | –
318.15 K, m1 = 0.6479 | – | – | 0.694
318.15 K, m1 = 0.6523 | – | 1006.2 | –
318.15 K, m1 = 0.7493 | – | – | 0.691
318.15 K, m1 = 0.7529 | – | 1008.52 | –
318.15 K, m1 = 0.9041 | – | – | 0.733
318.15 K, m1 = 0.9927 | – | – | 0.75
318.15 K, m1 = 1.176 | – | – | 0.759
318.15 K, m1 = 1.2 | – | 1018.06 | –
318.15 K, m1 = 1.497 | – | 1024.21 | –
318.15 K, m1 = 1.542 | – | – | 0.835
318.15 K, m1 = 1.986 | – | 1033.17 | –
318.15 K, m1 = 2.148 | – | – | 0.948

O [water] + C[N+](C)(C)CCO.[Cl-]
Settings | mass density [kg/m3]
278.15 K, m2 = 0 | 999.961

From the NIST ThermoML archive (doi:10.1021/je200856f)
